Laboratory results as given in the NIST ThermoML archive (doi:10.1016/j.jct.2005.03.007).

Assay: Solid-liquid equilibrium temperature
Details: Crystal

c1ccccc1 [benzene]
pressure-volume curve discontinuity
Details	Solid-liquid equilibrium temperature [K]
53620 kPa	293.15
92220 kPa	303.15
133290 kPa	313.15
176820 kPa	323.15
222810 kPa	333.15
271270 kPa	343.15
322200 kPa	353.15

CCCCCCCCCCCCCCCC [hexadecane]
pressure-volume curve discontinuity
Details	Solid-liquid equilibrium temperature [K]
9210 kPa	293.15
50650 kPa	303.15
95560 kPa	313.15
143920 kPa	323.15
195740 kPa	333.15
251030 kPa	343.15

CCCCCCCCCCCCCCCCCC [octadecane]
pressure-volume curve discontinuities
Details	Solid-liquid equilibrium temperature [K]
8860 kPa	303.15
49600 kPa	313.15
94900 kPa	323.15
144780 kPa	333.15
199220 kPa	343.15
258230 kPa	353.15
